Measured values as given in PubChem BioAssay AID1508591.
Several values for one entry are separate records, joined by “and”; a condition that tells them apart may be missing. Equal entries are not always repeated.

Conditions: rat; liver microsomes; pH 7.4; 15.0 min; 1.0 µM

Row | SMILES | half-life
1 | CCCCCn1c(CCCNC(=O)c2ccccc2OC)nc2ccccc21 | 1.31 min
2 | Cc1noc(C)c1-c1ccc2ncnc(N3CCC(C(=O)O)CC3)c2c1 | > 30 min
3 | OC(CCN1CCCCC1)c1ccc(-c2ccccc2)cc1 (centres undefined) | 4.73 min
4 | c1ccc(-c2nc(N3CCCCCC3)c3ccccc3n2)nc1 | 2.18 min
5 | Cc1nc2nc(NC(=O)c3ccc(C(C)(C)C)cc3)[nH]n2c(=O)c1Cl | 21 min
6 | Cc1ccc(-c2nn(C(C)(C)C)c3ncnc(N)c23)cc1 | 4.87 min
7 | COc1ccccc1CN1CCNc2cc(Nc3ccccc3)ncc2C1 | 1.21 min
8 | COc1ccc(-n2nc(C3CCN([S+](=O)([O-])c4cccc(C(F)(F)F)c4)CC3)[nH]c2=O)cc1 | 15 min
9 | N#Cc1cccc(-c2nccc(-n3ccnc3)n2)c1 | 26 min
10 | O=C1CCCC2=C1C(c1ncccc1Br)N=C(Nc1nc3ccccc3o1)N2 (centres undefined) | 11.4 min
11 | N#Cc1ccccc1CSc1nc2ncc(Br)cc2[nH]1 | 6.6 min
12 | C[C@@H](c1ccc2nccn2c1)n1nnc2ncc(-c3cnn(C)c3)nc21 | > 30 min
13 | N=c1c2c(n(Cc3ccccc3)c3c1CCC3)CCC2 | 4.04 min
14 | CSc1ccccc1N1CCN(CCCCCC(=O)NC2CCCc3ccccc32)CC1 (centres undefined) | 2.21 min
15 | NC(=O)C1CCN(c2ncnc(-c3ccc4c(c3)OCCCO4)n2)CC1 | 17.3 min
16 | O=C(NCCCNc1nc(Nc2cccc(CN3CCOCC3)c2)ncc1C1CC1)C1CCC1 | 6.85 min
17 | Cc1ccccc1S(=O)(=O)N1CCCC(CCC(=O)NCCN(C)C2CCCCC2)C1 (centres undefined) | 2.16 min

Row | SMILES | half-life
18 | O=C(Cc1ccc(O)cc1)N1CC(CNc2ccccc2)C2(C1)CN(c1ccccc1)C2 (centres undefined) | 9.42 min
19 | O=C(NC1CCCc2c1[nH]c1c(Cl)cccc21)c1ccc2c(c1)OCO2 (centres undefined) | 12.8 min
20 | CCOc1ccc(CCNC(=O)c2cc3sccc3n2Cc2ccc(Cl)c(F)c2)cc1OCC | 1.75 min
21 | NC(=O)C1CCN(c2nc(-c3ccccc3N)cs2)CC1 | 25.3 min
22 | CCc1ccc(-n2nc(C)c3c2NC(=O)CSC3c2ccccc2C)cc1 (centres undefined) | 2.44 min
23 | O=C(Cc1n[nH]c(=O)c2ccccc12)NC1CCCc2c1[nH]c1c(Cl)cccc21 (centres undefined) | 8.05 min
24 | CC(C)c1c(-c2ccccc2)nc2c(C#N)c[nH]n2c1=O | > 30 min
25 | Cc1ccnc(NC(=S)N2CC[C@@H](Nc3cccc(C(F)(F)F)c3)C2)c1 | 3.5 min
26 | Nc1nc2c(s1)C(c1cccc(Cl)c1Cl)CC(=O)N2 (centres undefined) | 26 min
27 | CCOc1ccc(CCNC(=O)c2cc3ncccc3n2Cc2cccc(C)n2)cc1OCC | 6.7 min
28 | COc1ccc(-n2nc(C3CCN([S+](=O)([O-])c4c(C)noc4C)CC3)[nH]c2=O)cc1 | 22.9 min
29 | O=C(N[C@@H](Cc1ccccc1)C(=O)CCl)OCc1ccccc1 | 14 min
30 | CCCCCCCC/C=C\CCCCCCCC(=O)NCCO | 2.33 min
31 | O=C(O)c1cn(C2CC2)c2cc(N3C[C@@H]4C[C@H]3CN4)c(F)cc2c1=O | > 30 min
32 | Fc1ccc(CN2CCNc3cc(Nc4ccccc4)ncc3C2)cc1F | 2.28 min
33 | Cc1ncc2c(c1CNC(=O)Cn1cnc3ccccc3c1=O)CCNC2 | > 30 min
34 | O=c1[nH]cnc2nc[nH]c12 | > 30 min

Further lines, results first:

Row | half-life | SMILES
35 | 14.3 min | CC(C)(C)c1ccc(S(=O)(=O)N2CCC(c3ccncc3)CC2)cc1
36 | 18 min | CC(C)n1cc(-c2ccc(Oc3ccccc3)cc2)c2c(N)ncnc21
37 | 27 min | Cc1ccc(S(=O)(=O)Nc2cnccc2C(=O)Nc2nc(-c3cccc(F)c3)cs2)cc1
38 | 2.34 min | O=S(=O)(c1ccc2ccccc2c1)N1CCN(c2nc(-c3cccs3)nc3ccccc23)CC1
39 | 17 min | Fc1cc(Nc2nc(-c3ccncc3)nc3ccccc23)ccc1C(F)(F)F
40 | 5.49 min | Cc1cc(-c2ccc(C)c(S(=O)(=O)NCC3CCN(Cc4ccc(F)cc4)CC3)c2)on1
41 | 1.7 min | CCN(c1ccccc1)S(=O)(=O)c1c(C)nc2scc(C)n2c1=O
42 | 17 min | O=C(Nc1nc(-c2ccccc2)cs1)c1ccccc1[N+](=O)[O-]
43 | 5.9 min | Fc1ccccc1-c1nc(NCc2ccc(-c3cccnc3)cc2)c2ccccc2n1
44 | 19.8 min | Fc1ccc(CNc2nc(-c3ccccc3C(F)(F)F)nc3ccccc23)cc1
45 | > 30 min | Fc1cccc(-c2ccc(Nc3nc(-c4ccncc4)nc4ccccc34)cc2F)c1
46 | 7.3 min | Cc1ccc(-c2csc(NC(=O)c3ccncc3NS(=O)(=O)c3ccc(C)cc3)n2)cc1
47 | > 30 min | CC(C)(Nc1nc(-c2ccccc2C(F)(F)F)nc2ccccc12)c1ccc(-c2cccc(C(F)(F)F)c2)cc1
48 | 19 min | CC(=O)c1c(C)[nH]c(C(=O)Nc2ccc(C)c(S(=O)(=O)Nc3ccc(Br)cc3)c2)c1C
49 | 3.5 min | COc1cccc(CNc2ccc([S+](=O)([O-])Nc3cc4ccccc4s3)cc2)c1O
50 | 3.37 min | COc1ccc(S(=O)(=O)N2CCOCC2)cc1NC(=O)c1cccc(-n2cccc2)c1
51 | 1.65 min | COc1ccc2[nH]cc(CCNC(=O)c3cnn(-c4ccc(C)cc4)c3C3CCN(C(=O)OC(C)(C)C)CC3)c2c1
52 | 11 min | c1ccc(-c2cc(Nc3nc(-c4ccncc4)nc4ccccc34)n[nH]2)cc1
53 | 1.7 min | Cc1ccc(S(=O)(=O)N(C)c2ccccc2C(=O)Nc2nc(-c3ccccc3)cs2)cc1
54 | 7.2 min | CCc1ccccc1C(=O)N1CCc2cc(-c3nc(NC(=O)Cc4ccc5c(c4)OCO5)sc3C)ccc21

Row | half-life | SMILES
55 | > 30 min | COc1cc(-c2nc(Nc3ccc(F)c(F)c3)c3ccccc3n2)cc(OC)n1
56 | 3.67 min | Cc1csc2nc(-c3cccc(NC(=O)c4cccc(F)c4)c3)cn12
57 | 21 min | CCN1C(=O)c2ccccc2[S@](=O)c2ccc(C(=O)NCc3ccc(C#N)cc3)cc21
58 | > 30 min | Cc1cc(NS(=O)(=O)c2ccc(N(C)C(=O)Cc3ccc(Cl)c(Cl)c3)cc2)no1
59 | > 30 min | O=C(c1ccccc1)N1CCN(c2nc(-c3ccc(Br)cc3)cs2)CC1
60 | 6.57 min | CCc1cccc(NC(=O)c2cc(-c3ccc[nH]3)n[nH]2)c1
61 | 14 min | Cc1ccc(S(=O)(=O)Nc2cnccc2C(=O)Nc2ccc(-c3nc4ccccc4[nH]3)cc2)cc1
62 | 9.87 min | COc1ncc(-c2ccc3c(Nc4cc(Oc5cc(F)cc(F)c5)cc(C(=O)O)c4)c(S(=O)(=O)NC4CC4)cnc3c2)c(OC)n1
63 | 1.35 min and 2.57 min | COc1ccc(C2Nc3ccccc3C(=O)N2Cc2ccco2)cc1COc1ccc(NC(C)=O)cc1 (centres undefined)
64 | 26 min | COc1ccccc1C(=O)Nc1nc2nc(C)cc(=O)n2[nH]1
65 | > 30 min | O=C(Nc1ccc(S(=O)(=O)Nc2nccs2)cc1)c1ccc(-c2ccccc2)cc1
66 | > 30 min | COc1cc(-c2nc(-c3ccccc3)c(-c3cccs3)[nH]2)cc(OC)c1O
67 | 1.17 min | CCN(CC)S(=O)(=O)c1ccc(N2CCCC2)c(NS(=O)(=O)c2ccc(C)cc2)c1
68 | > 30 min | O=C(Nc1ccc(N2CCN(C(=O)c3ccccc3F)CC2)cc1)c1cncc(Br)c1
69 | 3.9 min | O=C(Nc1nnc(-c2ccc(Cl)cc2)o1)c1ccc(Cl)c(Cl)c1
70 | > 30 min | O=C(Nc1ncc(Cc2ccc(C(F)(F)F)cc2)s1)c1ccc(-c2ccccc2)o1
71 | 1.55 min | CCNC(=O)c1coc(COc2ccc3c(c2)C(c2ccc(F)cc2)N(C(=O)CC(C)C)CC3)n1 (centres undefined)
72 | 22 min | COc1cc(Nc2nc(-c3ccncc3)nc3ccccc23)ccc1NS(C)(=O)=O
73 | 18 min | O=[S+]([O-])(Nc1cnc2ccccc2c1)c1ccc(NCc2ccc(Cl)cc2O)cc1
74 | 10 min | COc1cccc(CNc2ccc(S(=O)(=O)Nc3cccc4ccncc34)cc2)c1O
